This is an account of results in ChEMBL document CHEMBL1135113 (Bioorg Med Chem Lett, 2002).

In one assay the target is Integrin alpha-V/beta-3 (Homo sapiens, UniProt P05106+P06756). Nature of the assay: Selectivity against alphaV-beta3 integrin. In kind it is protein-complex assay.
Assay [1] addresses Integrin alpha-5/beta-1 (Homo sapiens) (UniProt P05556+P08648). Nature of the assay: Cell adhesion activity against alpha5-beta1 integrin. In kind it is protein-complex assay.
The target of assay [2] is T1, Integrin alpha-4/beta-1 (Homo sapiens) (UniProt P05556+P13612). Nature of the assay: Cell adhesion activity against alpha4-beta1 integrin at 10e-5 M. In kind it is protein-complex assay.
The species entered for a further assay is Homo sapiens. Nature of the assay: Efficacy of compound in cell migration of primary human Smooth Muscle Cells (SMC) was determined. The assay is classed as functional.
The target of assay [3] is T2, Integrin alpha-IIb/beta-3 (Homo sapiens, UniProt P05106+P08514). Nature of the assay: Selectivity against alpha IIb beta-3 integrin; Not active. The assay is classed as protein-complex assay.
T2 sequence (P05106 27-788 limits assumed): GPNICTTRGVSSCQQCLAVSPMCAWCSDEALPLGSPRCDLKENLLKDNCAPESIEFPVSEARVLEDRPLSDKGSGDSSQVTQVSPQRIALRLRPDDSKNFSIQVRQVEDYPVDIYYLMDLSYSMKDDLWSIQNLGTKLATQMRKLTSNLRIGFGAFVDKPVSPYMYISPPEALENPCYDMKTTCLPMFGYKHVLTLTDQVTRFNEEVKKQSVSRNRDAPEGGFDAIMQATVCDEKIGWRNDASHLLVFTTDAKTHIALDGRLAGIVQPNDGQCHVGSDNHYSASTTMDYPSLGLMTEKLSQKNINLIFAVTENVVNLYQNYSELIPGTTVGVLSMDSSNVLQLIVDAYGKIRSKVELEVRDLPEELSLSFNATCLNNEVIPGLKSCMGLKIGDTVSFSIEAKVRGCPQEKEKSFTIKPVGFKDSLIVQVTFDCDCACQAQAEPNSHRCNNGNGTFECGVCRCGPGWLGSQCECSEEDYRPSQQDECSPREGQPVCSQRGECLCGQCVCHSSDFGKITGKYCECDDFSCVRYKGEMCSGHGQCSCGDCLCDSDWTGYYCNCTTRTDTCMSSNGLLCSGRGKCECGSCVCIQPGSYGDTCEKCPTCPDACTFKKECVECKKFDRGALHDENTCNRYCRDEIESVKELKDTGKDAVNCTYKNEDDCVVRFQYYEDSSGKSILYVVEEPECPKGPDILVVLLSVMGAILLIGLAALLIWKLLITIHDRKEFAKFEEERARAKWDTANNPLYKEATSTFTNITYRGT
T2 sequence (P08514 32-887 limits assumed): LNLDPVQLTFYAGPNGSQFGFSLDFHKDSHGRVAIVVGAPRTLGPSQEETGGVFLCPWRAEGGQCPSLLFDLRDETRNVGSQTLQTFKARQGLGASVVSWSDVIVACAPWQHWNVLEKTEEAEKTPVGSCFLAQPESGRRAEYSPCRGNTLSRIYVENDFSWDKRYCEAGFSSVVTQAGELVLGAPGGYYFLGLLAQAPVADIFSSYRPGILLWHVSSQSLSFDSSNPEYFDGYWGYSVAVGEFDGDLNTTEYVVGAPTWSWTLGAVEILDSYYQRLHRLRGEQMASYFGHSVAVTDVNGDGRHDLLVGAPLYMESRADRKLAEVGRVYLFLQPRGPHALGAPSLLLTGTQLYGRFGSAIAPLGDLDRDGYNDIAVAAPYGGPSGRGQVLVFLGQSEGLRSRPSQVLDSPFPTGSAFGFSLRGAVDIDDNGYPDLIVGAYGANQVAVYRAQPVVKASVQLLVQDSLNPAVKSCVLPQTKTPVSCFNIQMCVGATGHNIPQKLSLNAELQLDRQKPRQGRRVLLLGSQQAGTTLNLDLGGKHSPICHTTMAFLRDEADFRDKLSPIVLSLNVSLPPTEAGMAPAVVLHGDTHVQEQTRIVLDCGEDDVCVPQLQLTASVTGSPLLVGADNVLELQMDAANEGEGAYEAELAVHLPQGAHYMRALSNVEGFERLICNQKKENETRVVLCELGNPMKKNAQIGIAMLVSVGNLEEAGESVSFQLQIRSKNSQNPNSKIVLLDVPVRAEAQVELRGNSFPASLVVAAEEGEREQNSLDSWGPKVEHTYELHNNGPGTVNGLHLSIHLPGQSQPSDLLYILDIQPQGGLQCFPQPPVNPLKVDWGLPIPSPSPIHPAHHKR
T2 sequence (P08514 891-1039 limits assumed): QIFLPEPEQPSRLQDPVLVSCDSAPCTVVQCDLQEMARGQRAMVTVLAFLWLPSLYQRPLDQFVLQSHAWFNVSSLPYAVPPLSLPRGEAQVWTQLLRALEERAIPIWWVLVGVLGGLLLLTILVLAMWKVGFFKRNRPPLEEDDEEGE
Assay [4] addresses T1, Integrin alpha-4/beta-1 (Homo sapiens). Nature of the assay: Cell adhesion activity against alpha4-beta1 integrin at 10 e-5M (not active). The assay is classed as protein-complex assay.
Assay [5] concerns the target T2, Integrin alpha-IIb/beta-3. Nature of the assay: Selectivity against Integrin alpha-IIb beta-3 receptor versus fibrinogen; Not active. The assay is classed as protein-complex assay.

Active and inactive are the calls of the source. The calls are words filed in the database; no cut-off is given here.

Integrin alpha-V/beta-3, sequence (P05106 27-788 limits assumed): as the sequence (P05106 27-788 limits assumed) above
Integrin alpha-V/beta-3, sequence (P06756 31-889 limits assumed): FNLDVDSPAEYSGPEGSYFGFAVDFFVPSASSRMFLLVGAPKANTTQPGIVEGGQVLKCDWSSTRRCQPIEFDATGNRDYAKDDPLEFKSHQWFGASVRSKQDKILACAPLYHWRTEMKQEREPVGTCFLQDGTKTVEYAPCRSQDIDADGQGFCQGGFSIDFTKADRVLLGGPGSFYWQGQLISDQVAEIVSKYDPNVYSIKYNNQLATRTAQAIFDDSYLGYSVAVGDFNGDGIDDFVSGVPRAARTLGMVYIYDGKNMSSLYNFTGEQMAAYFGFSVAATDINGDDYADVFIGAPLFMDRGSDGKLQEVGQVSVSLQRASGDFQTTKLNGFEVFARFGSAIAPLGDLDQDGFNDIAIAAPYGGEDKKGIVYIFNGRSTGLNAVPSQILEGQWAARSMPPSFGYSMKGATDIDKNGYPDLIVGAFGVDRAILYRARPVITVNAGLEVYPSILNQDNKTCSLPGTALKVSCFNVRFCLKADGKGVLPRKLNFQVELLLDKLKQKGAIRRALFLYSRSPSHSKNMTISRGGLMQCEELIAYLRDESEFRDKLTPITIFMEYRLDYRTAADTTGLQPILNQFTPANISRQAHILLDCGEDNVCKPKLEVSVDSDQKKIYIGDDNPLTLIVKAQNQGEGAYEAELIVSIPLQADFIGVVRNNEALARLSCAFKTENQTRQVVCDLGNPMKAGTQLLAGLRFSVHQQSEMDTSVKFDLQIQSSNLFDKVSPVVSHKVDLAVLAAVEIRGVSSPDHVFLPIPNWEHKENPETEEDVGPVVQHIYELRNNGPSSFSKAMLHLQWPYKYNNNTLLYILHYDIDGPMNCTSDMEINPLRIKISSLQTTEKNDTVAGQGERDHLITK
Integrin alpha-V/beta-3, sequence (P06756 891-1048 limits assumed): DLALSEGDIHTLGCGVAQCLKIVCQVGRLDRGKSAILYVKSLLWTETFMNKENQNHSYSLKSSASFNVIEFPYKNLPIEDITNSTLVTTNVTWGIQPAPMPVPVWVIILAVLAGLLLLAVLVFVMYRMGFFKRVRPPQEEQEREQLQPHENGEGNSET

The IC50 is the concentration needed to halve the response being measured. High values mean lower potency, low ones higher potency. By inhibition is commonly meant the drop in the measured response relative to a control, in per cent. Consider `O=C(CNC(=O)c1ccc(NC(=O)NCc2ccccc2)o1)NC[C@H](NC(=O)OCc1ccccc1)C(=O)O`, for which the IC50 against Integrin alpha-V/beta-3 is 0.0004 µM; in the assay filed under Homo sapiens it was 1.2 µM; in assay [3], “Not Active”. The inhibition result in assay [1] is “inactive”. This compound also had an inhibition in assay [2] of 2%.
Turning to `O=C(CNC(=O)c1cnc(NC(=O)NCc2ccccc2)o1)NC[C@H](NC(=O)OCc1ccccc1)C(=O)O`, the results for the IC50 (against Integrin alpha-V/beta-3; in the assay filed under Homo sapiens; in assay [5]) were 0.0018 µM, 0.5 µM and “Not Active”, respectively. In addition, the inhibition entry in assay [1] and in assay [4] was “inactive” in each case.
